Among the data in ChEMBL document CHEMBL1201862, “PubChem BioAssay data set” (2004) are EC50, IC50 and AC50 values, retold here.

Activity calls are given as the source filed them. Rule as the data show it, for most assays here: actives have a measured EC50 and inactives only a lower limit.

Assay [1] can be described thus: NIH-3T3 fibroblast cytotoxicity, dose response, cytotoxicity control, cell-based, fluorescence, Alamar Blue, secondary assay (AID 2327).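 Also: NIH-3T3 mouse fibroblasts cultured with fluconazole at 8 µg/mL.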 The format is functional. For orientation: Resazurin is reduced to fluorescent resorufin, in cell work by metabolically active cells.
The nature of assay [2]: luciferase reporter signal suppression in cells – H4 neuroglioma cells, luminescence, dose response (AID 1990). The assay is classed as functional, cell-based.
The nature of assay [3]: Luminescence Cell-Based Dose Response HTS to Identify Inhibitors of 5'UTR Stem-Loop Driven Prion Protein mRNA Translation in H4 Neuroglioblastoma Cells. [Related pubchem assays: 1827 (Project Summary), 1813 (Primary HTS)]. The format is functional.
The nature of assay [4]: alpha-synuclein stem-loop luciferase translation blockers – H4 neuroglioma cells, luminescence, confirmation (AID 1988). The format is functional, cell-based.
Assay [5] in a line: fluconazole-exposed Candida albicans growth modulators – fluorescence, retest, confirmation (AID 2467). The assay is classed as functional, cell-based.
For assay [6], the target named is T1, Serine/threonine-protein phosphatase (Candida dubliniensis (strain CD36 / CBS 7987 / NCPF 3949 / NRRLY-17841) (Yeast), UniProt B9W6M3).
T1 sequence (B9W6M3 whole entry): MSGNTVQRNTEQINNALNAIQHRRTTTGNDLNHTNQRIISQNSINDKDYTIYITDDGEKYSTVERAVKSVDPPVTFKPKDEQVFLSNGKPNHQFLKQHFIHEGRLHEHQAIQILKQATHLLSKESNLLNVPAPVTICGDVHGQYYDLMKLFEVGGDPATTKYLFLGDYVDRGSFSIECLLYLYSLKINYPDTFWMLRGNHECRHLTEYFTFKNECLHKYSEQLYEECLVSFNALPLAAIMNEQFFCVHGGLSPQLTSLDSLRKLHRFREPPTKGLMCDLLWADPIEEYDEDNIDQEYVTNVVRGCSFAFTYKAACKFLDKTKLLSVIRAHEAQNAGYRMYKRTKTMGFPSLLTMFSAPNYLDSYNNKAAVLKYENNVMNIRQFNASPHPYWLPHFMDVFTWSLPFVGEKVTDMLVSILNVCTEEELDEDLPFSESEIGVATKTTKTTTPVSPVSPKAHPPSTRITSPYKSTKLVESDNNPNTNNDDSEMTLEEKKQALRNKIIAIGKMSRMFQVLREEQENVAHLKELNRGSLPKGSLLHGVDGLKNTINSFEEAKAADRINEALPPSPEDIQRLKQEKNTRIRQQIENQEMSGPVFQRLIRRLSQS
Briefly: blockers of CaCl2-induced CDRE-lacZ signaling – S. cerevisiae, luminescence, secondary, dose response (AID 2388).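 Also: yeast reporter cells carrying a calcineurin-responsive lacZ construct stimulated with calcium chloride; luminescent beta-galactosidase reporter signal in whole cells rather than isolated phosphatase activity; potency for inhibition where a drop in reporter signal means calcineurin blockade.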 The format is functional, cell-based.

For assay [7], the system named is Jurkat. Briefly: blockers of NF-kB activation in T cells – Jurkat, luciferase reporter, luminescence, B- and T-cell, dose response (AID 489004).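 Also: NF-kB luciferase reporter Jurkat cells stimulated with PMA plus ionomycin.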 The format is functional, cell-based. As to conditions: Homo sapiens.
Assay [8] can be described thus: HEK-293T viability loss, compound-treated – cell-based, uHTS hits, cytotoxicity control for B/T-cell NF-kB inhibitor project, dose response (AID 489019).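 Also: IC50 reflects cytotoxicity as loss of cell viability.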 The assay is classed as functional.
Assay [9] deals with INS1. Briefly: INS-1E survival protection against cytokine death – cell-based, luminescence, retest, dose response (AID 449756).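 Also: cell death triggered by IL-1 beta plus TNF-alpha plus IFN-gamma mixture; protective hits raise ATP signal compared with cytokine alone wells.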 The format is functional. The conditions noted are these: Rattus norvegicus.
Assay [10] has as its target ATP-dependent molecular chaperone HSP82 (Candida albicans (strain WO-1) (Yeast), UniProt C4YTQ8). Briefly: steroid-induced GRE reporter decrease in yeast – S. cerevisiae, luminescence, Hsp90 inhibitor project, dose response (AID 2400).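 Also: beta-galactosidase luminescence from glucocorticoid response element reporter as proxy for Hsp90 function; inhibitor potency where signal loss means Hsp90 inhibition.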 The assay is classed as functional, cell-based.
Assay [11] in a line: reduction of Shn3 3'UTR-driven luciferase in osteoblasts – cell-based, Clone20 osteoblasts, firefly luciferase, cherry-picked, dose response (AID 624132).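 Also: firefly luciferase luminescence from reporter carrying the Shn3 3'UTR in osteoblasts.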 The assay is classed as functional.
Assay [12] in a line: loss of viability in HepG2 cells – cell-based, CellTiter-Glo, cherry-picked, cytotoxicity control for Shn3 inhibitor project, dose response (AID 624134). The format is functional.
Assay [13] in a line: non-specific 3'UTR reporter inhibition in Clone20-Shn3RL – cell-based, Renilla luciferase, cherry-picked, counter-screen for Shn3 inhibitor project, dose response (AID 624133). The assay is classed as functional.
For assay [14], the target named is T2, Galanin receptor type 3 (Homo sapiens, UniProt O60755).
T2 sequence (O60755 whole entry): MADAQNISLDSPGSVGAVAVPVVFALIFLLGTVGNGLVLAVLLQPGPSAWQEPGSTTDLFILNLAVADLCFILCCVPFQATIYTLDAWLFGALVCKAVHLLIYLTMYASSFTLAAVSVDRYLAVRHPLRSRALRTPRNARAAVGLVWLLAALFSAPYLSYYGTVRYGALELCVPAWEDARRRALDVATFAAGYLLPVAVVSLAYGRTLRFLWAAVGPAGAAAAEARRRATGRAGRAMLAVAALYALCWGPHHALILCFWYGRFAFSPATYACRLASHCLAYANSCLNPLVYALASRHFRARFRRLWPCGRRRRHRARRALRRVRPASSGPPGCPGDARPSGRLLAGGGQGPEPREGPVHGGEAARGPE
Briefly: Fluorescence-based cell-based primary high throughput dose response assay to identify antagonists of the Galanin Receptor 3 (GalR3). The format is functional.

A short description of assay [15]: cells. The format is functional, cell-based. The conditions noted are these: HEK-CNG.
Assay [16] deals with COUP transcription factor 2 (Homo sapiens, UniProt P24468). Put plainly: Luminescence-based cell-based high throughput dose response assay to identify inhibitors of COUP-TFII (NR2F2). The format is functional.
Chain of COUP transcription factor 2 (P24468 whole entry): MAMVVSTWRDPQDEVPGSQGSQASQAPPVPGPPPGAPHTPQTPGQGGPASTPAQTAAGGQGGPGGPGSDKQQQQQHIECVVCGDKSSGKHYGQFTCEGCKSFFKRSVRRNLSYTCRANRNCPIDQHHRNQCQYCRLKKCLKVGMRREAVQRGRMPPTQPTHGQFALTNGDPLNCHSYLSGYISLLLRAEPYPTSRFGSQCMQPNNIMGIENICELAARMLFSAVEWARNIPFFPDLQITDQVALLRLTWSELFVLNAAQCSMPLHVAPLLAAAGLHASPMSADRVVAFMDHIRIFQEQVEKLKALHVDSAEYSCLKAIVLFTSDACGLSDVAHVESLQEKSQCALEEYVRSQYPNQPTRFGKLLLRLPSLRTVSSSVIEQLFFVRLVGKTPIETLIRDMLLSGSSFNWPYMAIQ
For assay [17], the system named is Streptococcus sp. 'group A'. Briefly: Streptococcus pyogenes SK(-)GAS viability under kanamycin – luminescence, BacTiterGlo, confirmation, counter-screen for streptokinase expression inhibitor project, dose response (AID 1900). The assay is classed as functional, organism-based. On the technique in general: Counterscreens check selectivity or assay interference.

The test system of assay [18] is BJ. Briefly: BJ-TERT fibroblast viability loss – cell-based, RAS-independent, luminescence, dose response (AID 1933). The conditions noted are these: Homo sapiens. The assay is classed as functional.
The target in assay [19] is T3, Streptokinase A (Streptococcus pyogenes serotype M1, UniProt P10520).
T3 sequence (P10520 whole entry): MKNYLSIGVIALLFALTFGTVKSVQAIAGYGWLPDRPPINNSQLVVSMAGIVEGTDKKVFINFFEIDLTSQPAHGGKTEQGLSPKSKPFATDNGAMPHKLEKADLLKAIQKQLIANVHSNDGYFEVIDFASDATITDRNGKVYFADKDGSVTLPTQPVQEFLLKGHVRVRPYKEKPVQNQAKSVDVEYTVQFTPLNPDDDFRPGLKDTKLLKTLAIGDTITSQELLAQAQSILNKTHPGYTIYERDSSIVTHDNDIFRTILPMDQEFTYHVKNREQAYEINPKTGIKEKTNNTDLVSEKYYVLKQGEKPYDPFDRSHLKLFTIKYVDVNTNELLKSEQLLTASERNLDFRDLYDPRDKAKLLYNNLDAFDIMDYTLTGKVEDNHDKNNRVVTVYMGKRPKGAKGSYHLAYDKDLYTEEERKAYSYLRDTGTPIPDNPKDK
Put plainly: viability-normalized secreted streptokinase activity reduction – plasminogen activation absorbance, OD405, dose response (AID 1914).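 Also: secreted streptokinase activity via plasminogen activation per viability signal from cell pellet.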 The format is functional, Streptococcus pyogenes M1 GAS.

For assay [20], the system named is BJ. Put plainly: cells. As to conditions: Homo sapiens. The assay is classed as functional, cell-based.
The target of assay [21] is NS3 (Hepatitis C virus, UniProt A3EZJ3). Briefly: PubChem AID 2173. On the set-up: species or system Hepacivirus hominis.
Chain of NS3 (A3EZJ3 whole entry): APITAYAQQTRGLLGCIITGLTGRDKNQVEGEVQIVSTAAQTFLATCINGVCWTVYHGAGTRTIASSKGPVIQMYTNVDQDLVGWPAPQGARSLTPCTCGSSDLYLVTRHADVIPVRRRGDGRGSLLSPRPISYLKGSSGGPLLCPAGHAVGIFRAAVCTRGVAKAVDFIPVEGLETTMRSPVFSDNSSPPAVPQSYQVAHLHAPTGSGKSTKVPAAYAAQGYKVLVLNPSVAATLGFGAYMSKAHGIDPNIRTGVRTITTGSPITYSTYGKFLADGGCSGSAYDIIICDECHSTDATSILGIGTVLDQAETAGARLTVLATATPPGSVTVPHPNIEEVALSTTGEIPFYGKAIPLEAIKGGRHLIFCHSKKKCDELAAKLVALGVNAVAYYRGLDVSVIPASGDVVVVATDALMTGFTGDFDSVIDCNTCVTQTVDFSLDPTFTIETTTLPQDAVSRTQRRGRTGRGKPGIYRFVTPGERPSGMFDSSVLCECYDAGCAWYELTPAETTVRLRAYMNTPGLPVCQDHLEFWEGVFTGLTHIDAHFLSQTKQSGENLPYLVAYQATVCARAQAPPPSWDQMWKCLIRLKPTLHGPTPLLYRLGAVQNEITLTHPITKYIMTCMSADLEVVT
The nature of assay [22]: Trypanosoma cruzi growth suppression in host cells – NIH3T3 host cells, beta-gal luminescence, confirmation (AID 2044).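 Also: intracellular parasites grown in NIH/3T3 mouse fibroblasts as host cells; luminescent beta-galactosidase reporter signal from transgenic T. cruzi replicating inside host cells; inhibitors lower the luminescence signal.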 The format is functional, cell-based.
A short description of assay [23]: NIH3T3 cell viability loss – ATP luminescence, mouse fibroblasts, counter-screen, dose response (AID 2010).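 Also: cells exposed to compound for about 90 hours before reading.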 The assay is classed as functional, cell-based.
Assay [24] deals with BJ. Briefly: BJ-TERT-LT-ST fibroblast viability loss – cell-based, RAS-independent, luminescence, dose response (AID 1935).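 Also: BJ fibroblasts immortalized with TERT plus LT and ST oncogenes.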 The format is functional. As to conditions: Homo sapiens.
Assay [25] in a line: DRD fibroblast viability loss – cell-based, non-viral oncogenic, luminescence, dose response (AID 1934). The assay is classed as functional. The conditions noted are these: Homo sapiens.
Assay [26] deals with Streptococcus. Put plainly: GAS UMAA2166 growth inhibition – luminescence, BacTiterGlo, counter-screen for streptokinase expression inhibitor project, dose response (AID 1915).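 Also: potency for reduction of bacterial viability or growth.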 The format is functional, organism-based.
Assay [27] concerns the target T4, Heat shock factor protein 1 (Mus musculus, UniProt P38532).
T4 sequence (P38532 whole entry): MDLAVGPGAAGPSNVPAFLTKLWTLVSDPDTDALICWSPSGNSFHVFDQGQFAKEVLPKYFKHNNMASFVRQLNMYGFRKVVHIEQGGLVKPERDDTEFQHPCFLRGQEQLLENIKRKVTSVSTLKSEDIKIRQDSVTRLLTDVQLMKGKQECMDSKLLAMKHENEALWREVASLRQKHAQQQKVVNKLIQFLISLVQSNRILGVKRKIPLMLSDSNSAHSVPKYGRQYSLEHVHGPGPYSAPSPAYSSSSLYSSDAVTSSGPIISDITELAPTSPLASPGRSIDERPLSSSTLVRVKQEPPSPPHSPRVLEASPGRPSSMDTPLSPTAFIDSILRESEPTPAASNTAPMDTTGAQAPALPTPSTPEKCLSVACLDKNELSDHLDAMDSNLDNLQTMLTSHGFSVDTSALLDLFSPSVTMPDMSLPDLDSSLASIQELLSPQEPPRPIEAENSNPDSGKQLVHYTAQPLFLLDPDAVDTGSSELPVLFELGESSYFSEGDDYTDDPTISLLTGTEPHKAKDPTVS
Briefly: enhancement of HSF1-driven luciferase signal – cell-based, NIH3T3, luminescence, dose retest, confirmation (AID 435004).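 Also: stress induced by proteasome inhibitor MG132 added 30 min after compound; luciferase reporter driven by HSF1 response element in NIH3T3 cells; actives raise luminescence as potentiators of the MG132 stress response.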 The format is functional.

Assay [28] addresses Heat shock protein HSP 90-alpha (Homo sapiens, UniProt P07900). The assay is classed as functional, organism-based.
Assay [29] addresses T1, Serine/threonine-protein phosphatase. Put plainly: Fluorescence Cell-Based Secondary Assay to Identify Inhibitors of Calcineurin. [Related pubchem assays (depositor defined):AID1979, AID2007]. The assay is classed as functional.
In assay [30] the test system is HeLa. Briefly: ATP-based viability loss in HeLa cells – cell-based, CellTiter-Glo luminescence, cherry-pick samples, cytotoxicity control for MITF activator project, dose response (AID 540259). The format is functional. As to conditions: Homo sapiens.

Chain of ATP-dependent molecular chaperone HSP82 (C4YTQ8 whole entry): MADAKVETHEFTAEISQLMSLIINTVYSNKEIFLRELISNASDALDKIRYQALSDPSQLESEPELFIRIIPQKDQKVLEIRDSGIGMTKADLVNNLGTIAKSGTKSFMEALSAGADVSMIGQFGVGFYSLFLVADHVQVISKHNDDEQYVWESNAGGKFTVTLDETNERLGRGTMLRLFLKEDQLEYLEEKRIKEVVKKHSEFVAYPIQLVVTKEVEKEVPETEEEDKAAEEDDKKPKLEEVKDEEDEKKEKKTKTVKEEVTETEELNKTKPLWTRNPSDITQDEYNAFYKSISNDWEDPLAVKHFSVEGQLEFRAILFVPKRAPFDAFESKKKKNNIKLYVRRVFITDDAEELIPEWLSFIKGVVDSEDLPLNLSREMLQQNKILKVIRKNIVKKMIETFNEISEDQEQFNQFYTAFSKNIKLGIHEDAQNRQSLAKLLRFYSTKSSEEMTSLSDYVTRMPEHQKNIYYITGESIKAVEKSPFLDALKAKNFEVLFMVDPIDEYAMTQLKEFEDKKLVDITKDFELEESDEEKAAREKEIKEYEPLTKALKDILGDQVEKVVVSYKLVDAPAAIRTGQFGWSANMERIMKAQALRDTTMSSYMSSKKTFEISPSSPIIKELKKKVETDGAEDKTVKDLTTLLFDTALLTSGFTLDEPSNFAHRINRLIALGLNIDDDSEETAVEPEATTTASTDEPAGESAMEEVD

As to `COc1ccc(CCNc2ncnc3sc(C)cc23)cc1OC`, the EC50 in [1] is > 150 µM (inactive); in [2], > 120 µM (not active); in [3] it was > 120 µM (not active); in assay [4], > 120 µM (not active); in assay [5] it was 0.767 µM (active); in assay [6] it was > 180 µM (inactive). Also, the EC50 in [10] was > 150 µM (inactive); in assay [15], > 29.9 µM (inactive). Further, the IC50 in assay [7] is 45.3 µM (inactive); in assay [8], > 80 µM (inactive); in assay [14], 0.43 µM (active); in assay [16], 2.21 µM (active). For the same compound, the AC50 in assay [9] was 0.902 µM (active); in assay [11] it was < 0.26 µM (active); in assay [12], 0.739 µM (active); in [13], 0.796 µM (active).

As for `Cc1ccc(/C=C/C(=O)c2ccccc(=O)c2O)cc1C`, the EC50 in [1] was > 160 µM (inconclusive); in assay [17], 5.05 µM (active); in [18] it was 23.7 µM (active); in assay [19], > 150 µM (not active); in assay [20] it was 24.9 µM (active); in assay [5] it was 0.851 µM (active). Besides, the EC50 in assay [22] is 1.83 µM (active); in assay [6], 5.55 µM (active); in assay [23] it was 17.5 µM (active); in assay [24], > 150 µM (not active); in assay [25] it was 77.7 µM (active); in assay [26] it was 11.5 µM (active). Also, the EC50 in assay [27] is 40 µM (active); in [29], 12.9 µM (active); in [10] it was 2.09 µM (active). Further, the IC50 in assay [21] is 2.63 µM (active). Also, the AC50 in assay [28] is 4.22 µM (active).

Regarding `COc1ccc(C(S)=Nc2ccc(C)cc2)cc1`, the AC50 in assay [30] was 194 µM (active).

For orientation: EC50 means the midpoint of the concentration-response curve. As a reminder, the IC50 is the midpoint of a concentration-inhibition curve. The term AC50 denotes the concentration at which the activity in the assay is half-maximal.
